Inconclusive results and toxic doses are left out. How the source made its calls: active means survival T/C of 150% or more; inactive means T/C below 125% in these data.
Test system: P388 leukemia ip, CD2F1 mice, survival T/C
Experiment: NCI In Vivo Anticancer Drug Screen. Data for tumor model P388 Leukemia (intraperitoneal) in CD2F1 (CDF1) mice
Settings: endpoint: median survival time, higher = longer survival
Summary of the method: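 Mice carrying the transplanted tumor received test compound or vehicle. Survival was recorded in each group, and the value is the treated-group measurement divided by that of the vehicle-treated control group.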

[1] = dose: 50.0 mg/kg/injection, schedule: Q01DX009 (ip), vehicle: Klucel (hydroxypropylcellulose) (HPC)
[2] = dose: 100.0 mg/kg/injection, schedule: Q01DX009 (ip), vehicle: Klucel (hydroxypropylcellulose) (HPC)
[3] = dose: 200.0 mg/kg/injection, schedule: Q01DX009 (ip), vehicle: Klucel (hydroxypropylcellulose) (HPC)
[4] = dose: 50.0 mg/kg/injection, schedule: Q01DX009 (ip), vehicle: saline
[5] = dose: 100.0 mg/kg/injection, schedule: Q01DX009 (ip), vehicle: saline
[6] = dose: 100.0 mg/kg/injection, schedule: Q04DX003 (ip), vehicle: saline
[7] = dose: 200.0 mg/kg/injection, schedule: Q01DX009 (ip), vehicle: saline
[8] = dose: 200.0 mg/kg/injection, schedule: Q04DX003 (ip), vehicle: saline
[9] = dose: 50.0 mg/kg/injection, schedule: Q01DX005 (ip), vehicle: saline with Tween-80
[10] = dose: 100.0 mg/kg/injection, schedule: Q01DX005 (ip), vehicle: saline with Tween-80
[11] = dose: 200.0 mg/kg/injection, schedule: Q01DX005 (ip), vehicle: saline with Tween-80
[12] = dose: 60.0 mg/kg/injection, schedule: Q01DX005 (ip), vehicle: saline with Tween-80
[13] = dose: 120.0 mg/kg/injection, schedule: Q01DX005 (ip), vehicle: saline with Tween-80
[14] = dose: 240.0 mg/kg/injection, schedule: Q01DX005 (ip), vehicle: saline with Tween-80
[15] = dose: 50.0 mg/kg/injection, schedule: Q01DX009 (ip), vehicle: saline with Tween-80

Measured: T/C

COC(=O)c1ccc(-c2ccccc2)cc1
inactive: dose: 25.0 mg/kg/injection, schedule: Q01DX009 (ip), vehicle: Klucel (hydroxypropylcellulose) (HPC) 89 % of control | [1] 89 % of control | [2] 90 % of control | [3] 86 % of control

C1CNC(SC2(SC3=NCCN3)SC3(NCCN3)S2)=N1
inactive: dose: 50.75 mg/kg/injection, schedule: Q01DX001 (ip), vehicle: saline 104 % of control | dose: 101.5 mg/kg/injection, schedule: Q01DX001 (ip), vehicle: saline 99 % of control | dose: 203.0 mg/kg/injection, schedule: Q01DX001 (ip), vehicle: saline 101 % of control

CN(C)C(=O)Sc1nnc(C(C)(C)C)o1
inactive: dose: 25.0 mg/kg/injection, schedule: Q01DX005 (ip), vehicle: Klucel (hydroxypropylcellulose) (HPC) 100 % of control | dose: 50.0 mg/kg/injection, schedule: Q01DX005 (ip), vehicle: Klucel (hydroxypropylcellulose) (HPC) 106 % of control | dose: 100.0 mg/kg/injection, schedule: Q01DX005 (ip), vehicle: Klucel (hydroxypropylcellulose) (HPC) 106 % of control

OCC1OC(c2ccc(O)cc2O)C(O)C1O (centres undefined)
inactive: [4] 102 % of control | [5] 96 % of control | [6] 95 % of control | [7] 105 % of control | [8] 98 % of control | dose: 400.0 mg/kg/injection, schedule: Q04DX003 (ip), vehicle: saline 95 % of control

CCOP(=O)(CC(=O)NC(C(N)=O)C(C)C)OCC (centres undefined)
inactive: [9] 101 % of control | [10] 104 % of control | [11] 105 % of control

N#CCCn1nc(Sc2ccccc2)c(=O)[nH]c1=O
inactive: [9] 95 % of control | [12] 100 % of control | [10] 94 % of control | [13] 100 % of control | [11] 94 % of control | [14] 95 % of control

C=C1CC1CC(N)C(=O)O (centres undefined)
inactive: dose: 1.25 mg/kg/injection, schedule: Q01DX009 (ip), vehicle: saline 108 % of control | dose: 2.5 mg/kg/injection, schedule: Q01DX009 (ip), vehicle: saline 96 % of control | dose: 5.0 mg/kg/injection, schedule: Q01DX009 (ip), vehicle: saline 100 % of control

O=C(NC(=S)c1ccc(Br)cc1)Nc1ccc(Cl)c(Cl)c1
inactive: dose: 12.5 mg/kg/injection, schedule: Q01DX009 (ip), vehicle: saline with Tween-80 96 % of control | dose: 25.0 mg/kg/injection, schedule: Q01DX009 (ip), vehicle: saline with Tween-80 98 % of control | [15] 106 % of control

O=[N+]([O-])c1cccc(/C=N/NS(=O)(=O)c2ccc(F)cc2)c1O
inactive: [12] 95 % of control | [13] 93 % of control | [14] 106 % of control

CCN(CC)CCNc1ccc(COC(N)=O)c2sc3ccccc3c(=O)c12
inactive: [6] 117 % of control | [8] 122 % of control

COc1cc(NC(C)CCCN)c2ncccc2c1Sc1ccc(Cl)cc1 (centres undefined)
inactive: dose: 3.13 mg/kg/injection, schedule: Q01DX009 (ip), vehicle: saline with Tween-80 89 % of control | dose: 6.25 mg/kg/injection, schedule: Q01DX009 (ip), vehicle: saline with Tween-80 94 % of control

S=C1SCCCN1Cc1ccc(Cl)cc1
inactive: [1] 95 % of control | [2] 104 % of control | [3] 107 % of control

COc1ccc2c(c1)C(=O)CC(COS(=O)(=O)c1ccc(C)cc1)C2 (centres undefined)
inactive: [15] 107 % of control | dose: 100.0 mg/kg/injection, schedule: Q01DX009 (ip), vehicle: saline with Tween-80 101 % of control | dose: 200.0 mg/kg/injection, schedule: Q01DX009 (ip), vehicle: saline with Tween-80 99 % of control

CCC1(O)CC(OC2CC(NC)C(OC3CC(O)C(OC4CC(O)C(O)C(C)O4)C(C)O3)C(C)O2)c2c(cc3c(c2O)C(=O)c2c(O)ccc(O)c2C3=O)C1C(=O)OC (centres undefined)
inactive: dose: 3.13 mg/kg/injection, schedule: Q04DX003 (ip), vehicle: Klucel (hydroxypropylcellulose) (HPC) 115 % of control | dose: 6.25 mg/kg/injection, schedule: Q04DX003 (ip), vehicle: Klucel (hydroxypropylcellulose) (HPC) 118 % of control | dose: 12.5 mg/kg/injection, schedule: Q04DX003 (ip), vehicle: Klucel (hydroxypropylcellulose) (HPC) 115 % of control

NC(=O)c1coc2c1C(=O)c1ccc3ccccc3c1CC2
inactive: [12] 102 % of control | [13] 102 % of control | [14] 108 % of control

C[N+]1(CCC(/C=C/c2ccc([N+](=O)[O-])cc2)=N\O)CCOCC1
inactive: dose: 7.5 mg/kg/injection, schedule: Q01DX005 (ip), vehicle: saline with Tween-80 107 % of control | dose: 15.0 mg/kg/injection, schedule: Q01DX005 (ip), vehicle: saline with Tween-80 93 % of control | dose: 30.0 mg/kg/injection, schedule: Q01DX005 (ip), vehicle: saline with Tween-80 100 % of control

C=CCC12CC(O)C(O)CC1(OC)OC(c1cc(OC)c(OC)c(OC)c1)C2C (centres undefined)
inactive: dose: 1.25 mg/kg/injection, schedule: Q01DX005 (ip), vehicle: acid diluted with saline 102 % of control | dose: 2.5 mg/kg/injection, schedule: Q01DX005 (ip), vehicle: acid diluted with saline 102 % of control | dose: 5.0 mg/kg/injection, schedule: Q01DX005 (ip), vehicle: acid diluted with saline 98 % of control | dose: 10.0 mg/kg/injection, schedule: Q01DX005 (ip), vehicle: acid diluted with saline 102 % of control

OC1c2cccn2-c2cc(Cl)ccc2SC1c1ccccc1 (centres undefined)
inactive: [12] 99 % of control | [13] 101 % of control | [14] 100 % of control

O=C1C2=C(Nc3cc([N+](=O)[O-])ccc3N2)OC1c1ccccc1 (centres undefined)
inactive: dose: 60.0 mg/kg/injection, schedule: Q01DX005 (ip), vehicle: Klucel (hydroxypropylcellulose) (HPC) 91 % of control | dose: 120.0 mg/kg/injection, schedule: Q01DX005 (ip), vehicle: Klucel (hydroxypropylcellulose) (HPC) 91 % of control | dose: 240.0 mg/kg/injection, schedule: Q01DX005 (ip), vehicle: Klucel (hydroxypropylcellulose) (HPC) 99 % of control

O=C(OC1(c2nccc3ccccc23)CCN(CCc2ccccc2)CC1)c1ccccc1
inactive: dose: 6.25 mg/kg/injection, schedule: Q01DX009 (ip), vehicle: saline 105 % of control | dose: 12.5 mg/kg/injection, schedule: Q01DX009 (ip), vehicle: saline 99 % of control | dose: 25.0 mg/kg/injection, schedule: Q01DX009 (ip), vehicle: saline 97 % of control

NC(=O)c1ccccc1NC(=O)CCCC(=O)O
inactive: [4] 98 % of control | [5] 108 % of control | [7] 97 % of control

Source: PubChem BioAssay AID330 (DTP/NCI, 2004)
